# Measurements: patent US20240246932A1 (Merck Sharp & Dohme LLC, priority 2021, published 2024)
# Target: human NaV 1.8 channels stably expressed in HEK 293 cells (Homo sapiens (Human), UniProt Q9Y5Y9)
# Assay: Nav1.8 Qube automated patch-clamp assay
# Type: cell-based
# Details: human NaV1.8 in HEK 293 cells, whole-cell voltage clamp, room temperature; read-out: IC50 values (nM) for Examples in the Nav1.8 Qube Assay
# Procedure: Compounds were tested on human NaV 1.8 and NaV1.5 channels stably expressed in human embryo kidney (HEK) 293 cells. Sodium current measurements on Qube® were conducted as follows: automated 384-well patch-clamp assays on the Qube® platform (Sophion Biosciences) were used to measure the inhibition of sodium flow through human NaV1.8 and NaV1.5 channels. Whole-cell voltage-clamp recordings were performed in QChips® (Sophion Biosciences) at room temperature. NaV1.8 current measurements on Qube® were obtained as follows: NaV1.8 currents were elicited with a 10 second 1 Hertz (Hz) pulse train from a holding potential of −90 millivolts (mV), delivered to the cells once per minute in the control condition (DMSO only) and after compound addition. The 1 hertz pulse train stimulation consisted of ten test pulses to 10 millivolt (mV) for 20 milliseconds (ms), each of which was followed by a 980 millisecond repolarization to −67 millivolts. At the end of the 10 second pulse train stimulation, a 5 second hyperpolarization step to −100 millivolt (mV) was used to recover NaV1.8 from fast inactivation. The peak currents elicited by the 1st and 10th test pulses were used to determine IC50 values for resting inhibition and inactivated state inhibition. NaV1.5 current measurements on Qube® were obtained as follows: NaV1.5 currents were elicited with a 20 second 3 Hertz pulse train in the control condition (DMSO only) and after compound addition. The pulse train consisted of sixty 20 millisecond test pulses to 0 millivolt from a holding potential of −80 millivolt (mV). The average peak currents elicited by the last 3 test pulses were used to determine IC50 values for NaV1.5 inhibition.
# The following buffers were used for the Qube® recordings: External buffer for NaV1.8 Qube® recording: 150 NaCl, 2 CaCl2, 5 KCl, 1 MgCl2, 10 HEPES, 12 Dextrose; External buffer for Qube® NaV1.5 recording: 120 N-Methyl-D-Glucamine, 40 NaCl, 1 KCl, 2.7 CaCl2), 5 HEPES, 0.5 MgCl2; and Internal buffer for Qube® recording: 120 CsF, 30 CsCl, 10 EGTA, 5 HEPES, 5 NaF, 2 MgCl2.
# For all Qube® experiments offline analysis was used to determine percent inhibition as a function of drug concentration. IC50 values were determined by fitting to the Hill equation.
# human NaV 1.8 channels stably expressed in HEK 293 cells, sequence (Q9Y5Y9 whole entry): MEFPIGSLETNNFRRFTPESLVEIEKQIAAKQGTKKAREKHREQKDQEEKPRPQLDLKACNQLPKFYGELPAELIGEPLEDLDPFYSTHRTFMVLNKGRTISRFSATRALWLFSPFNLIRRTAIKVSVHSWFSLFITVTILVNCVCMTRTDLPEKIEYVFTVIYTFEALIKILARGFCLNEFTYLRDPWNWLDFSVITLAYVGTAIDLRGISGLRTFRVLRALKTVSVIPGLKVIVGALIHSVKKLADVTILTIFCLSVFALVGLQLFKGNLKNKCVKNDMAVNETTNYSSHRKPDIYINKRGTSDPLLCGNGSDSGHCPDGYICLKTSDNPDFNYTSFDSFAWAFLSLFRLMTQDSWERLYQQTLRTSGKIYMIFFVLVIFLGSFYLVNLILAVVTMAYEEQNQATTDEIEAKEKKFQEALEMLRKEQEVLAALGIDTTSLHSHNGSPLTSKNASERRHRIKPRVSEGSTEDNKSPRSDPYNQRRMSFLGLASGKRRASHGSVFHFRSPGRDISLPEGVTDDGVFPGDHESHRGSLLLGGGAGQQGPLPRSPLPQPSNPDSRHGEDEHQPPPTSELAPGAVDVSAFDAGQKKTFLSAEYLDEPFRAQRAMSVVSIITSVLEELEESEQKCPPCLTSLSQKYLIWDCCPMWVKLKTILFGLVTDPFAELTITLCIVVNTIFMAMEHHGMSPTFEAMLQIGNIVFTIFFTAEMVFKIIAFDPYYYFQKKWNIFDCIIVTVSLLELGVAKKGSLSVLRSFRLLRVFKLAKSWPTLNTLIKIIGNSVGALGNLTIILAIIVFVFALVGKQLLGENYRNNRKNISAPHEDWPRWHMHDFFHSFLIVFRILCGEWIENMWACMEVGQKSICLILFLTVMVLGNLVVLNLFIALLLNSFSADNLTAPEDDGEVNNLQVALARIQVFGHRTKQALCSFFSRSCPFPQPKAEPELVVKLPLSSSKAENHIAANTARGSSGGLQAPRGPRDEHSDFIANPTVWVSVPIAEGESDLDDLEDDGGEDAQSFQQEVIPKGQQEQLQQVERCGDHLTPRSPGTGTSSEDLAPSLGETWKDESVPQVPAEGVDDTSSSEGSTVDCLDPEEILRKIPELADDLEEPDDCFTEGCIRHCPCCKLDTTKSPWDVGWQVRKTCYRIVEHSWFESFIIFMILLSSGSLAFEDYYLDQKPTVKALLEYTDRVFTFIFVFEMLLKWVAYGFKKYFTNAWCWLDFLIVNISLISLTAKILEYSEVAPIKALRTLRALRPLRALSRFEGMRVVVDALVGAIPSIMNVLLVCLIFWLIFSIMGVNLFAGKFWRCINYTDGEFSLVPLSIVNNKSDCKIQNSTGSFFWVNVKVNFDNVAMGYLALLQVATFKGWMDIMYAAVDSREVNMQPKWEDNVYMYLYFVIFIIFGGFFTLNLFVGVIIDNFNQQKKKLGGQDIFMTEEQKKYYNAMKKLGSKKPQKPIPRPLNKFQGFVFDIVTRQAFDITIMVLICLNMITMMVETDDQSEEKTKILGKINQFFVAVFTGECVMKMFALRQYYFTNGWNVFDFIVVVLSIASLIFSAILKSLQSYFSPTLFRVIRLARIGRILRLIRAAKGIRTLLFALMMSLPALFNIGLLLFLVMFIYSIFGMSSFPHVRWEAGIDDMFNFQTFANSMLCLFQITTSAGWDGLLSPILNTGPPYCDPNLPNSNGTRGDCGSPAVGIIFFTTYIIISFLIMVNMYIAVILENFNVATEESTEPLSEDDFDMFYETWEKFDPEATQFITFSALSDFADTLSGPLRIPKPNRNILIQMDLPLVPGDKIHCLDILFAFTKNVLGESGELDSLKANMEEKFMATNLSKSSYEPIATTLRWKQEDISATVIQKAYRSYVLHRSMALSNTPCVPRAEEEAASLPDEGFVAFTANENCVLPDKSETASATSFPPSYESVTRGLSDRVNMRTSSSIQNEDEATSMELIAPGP
row,SMILES,IC50 [nM]
1,"C[C@@H]1C(=O)NCCN1C(=O)NC(c1ccc(OCC(F)(F)F)nc1)c1ccc(F)c(Cl)c1F (single isomer, unassigned) [Example 1A]",1.09
2,"C[C@@H]1C(=O)NCCN1C(=O)NC(c1ccc(OCC(F)(F)F)nc1)c1ccc(F)c(Cl)c1F (single isomer, unassigned) [Example 1B]",30.9
3,"O=C1CN(C(=O)NC(c2ccc(OCC(F)(F)F)nc2)c2ccc(F)c(Cl)c2)CCN1 (single isomer, unassigned) [Example 2A, N-((R or S)-(3-chloro-4-fluorophenyl)(6-(2,2,2-trifluoro-ethoxy)pyridin-3-yl)methyl)-3-oxopiperazine-1-carboxamide]",8.98
4,"O=C1CN(C(=O)NC(c2ccc(OCC(F)(F)F)nc2)c2ccc(F)c(Cl)c2)CCN1 (single isomer, unassigned) [Example 2B, N-((S or R)-(3-chloro-4-fluorophenyl)(6-(2,2,2-trifluoroethoxy)pyridin-3-yl)methyl)-3-oxopiperazine-1-carboxamide]",123
5,"C[C@@H]1C(=O)NCCN1C(=O)NC(c1ccc(OCC(F)(F)F)nc1)c1ccc(F)c(Cl)c1 (single isomer, unassigned) [Example 3A, (2R)-N-((R or S)-(3-chloro-4-fluorophenyl)(6-(2,2,2-trifluoro-ethoxy)pyridin-3-yl)methyl)-2-methyl-3-oxopiperazine-1-carboxamide]",2.22
6,"C[C@@H]1C(=O)NCCN1C(=O)NC(c1ccc(OCC(F)(F)F)nc1)c1ccc(F)c(Cl)c1 (single isomer, unassigned) [Example 3B, (2R)-N-((S or R)-(3-chloro-4-fluorophenyl)(6-(2,2,2-trifluoro-ethoxy)pyridin-3-yl)methyl)-2-methyl-3-oxopiperazine-1-carboxamide]",21.9
7,"C[C@@H]1C(=O)NCCN1C(=O)NC(c1ccc(OC(F)(F)F)nc1)c1ccc(F)c(Cl)c1F (single isomer, unassigned) [Example 4A, (2R)-N-((R or S)-(3-chloro-2,4-difluorophenyl)(6-(trifluoromethoxy)pyridin-3-yl)methyl)-2-methyl-3-oxopiperazine-1-carboxamide]",3.9
8,"C[C@@H]1C(=O)NCCN1C(=O)NC(c1ccc(OC(F)(F)F)nc1)c1ccc(F)c(Cl)c1F (single isomer, unassigned) [Example 4B, (2R)-N-((S or R)-(3-chloro-2,4-difluorophenyl)(6-(trifluoromethoxy)pyridin-3-yl)methyl)-2-methyl-3-oxopiperazine-1-carboxamide]",25.7
9,"C[C@@H]1C(=O)NCCN1C(=O)NC(c1ccc(Cl)cc1)c1ccc(OCC(F)(F)F)nc1 (single isomer, unassigned) [Example 5A, (2R)-N-((R or S)-(4-chlorophenyl)(6-(2,2,2-trifluoro-ethoxy)pyridin-3-yl)methyl)-2-methyl-3-oxopiperazine-1-carboxamide]",17.6
10,"C[C@@H]1C(=O)NCCN1C(=O)NC(c1ccc(Cl)cc1)c1ccc(OCC(F)(F)F)nc1 (single isomer, unassigned) [Example 5B, (2R)-N-((S or R)-(4-chlorophenyl)(6-(2,2,2-trifluoro-ethoxy)pyridin-3-yl)methyl)-2-methyl-3-oxopiperazine-1-carboxamide]",28.9
11,"C[C@@H]1C(=O)NCCN1C(=O)NC(c1ccc(OCC(F)(F)F)nc1)c1ccc(F)c(F)c1 (single isomer, unassigned) [Example 6A, (2R)-N-((R or S)-(3,4-difluorophenyl)(6-(2,2,2-trifluoro-ethoxy)pyridin-3-yl)methyl)-2-methyl-3-oxopiperazine-1-carboxamide]",20
12,"C[C@@H]1C(=O)NCCN1C(=O)NC(c1ccc(OCC(F)(F)F)nc1)c1ccc(F)c(F)c1 (single isomer, unassigned) [Example 6B, (2R)-N-((S or R)-(3,4-difluorophenyl)(6-(2,2,2-trifluoro-ethoxy)pyridin-3-yl)methyl)-2-methyl-3-oxopiperazine-1-carboxamide]",128
13,"C[C@@H]1C(=O)NCCN1C(=O)NC(c1ccc(OCC(F)(F)F)nc1)c1cc(F)c(F)c(Cl)c1 (single isomer, unassigned) [Example 7A, (2R)-N-((R or S)-(3-chloro-4,5-difluorophenyl)(6-(2,2,2-trifluoro-ethoxy)pyridin-3-yl)methyl)-2-methyl-3-oxopiperazine-1-carboxamide]",10.8
14,"C[C@@H]1C(=O)NCCN1C(=O)NC(c1ccc(OCC(F)(F)F)nc1)c1cc(F)c(F)c(Cl)c1 (single isomer, unassigned) [Example 7B, (2R)-N-((S or R)-(3-chloro-4,5-difluoro-phenyl)(6-(2,2,2-tri-fluoroethoxy)pyridin-3-yl)methyl)-2-methyl-3-oxo-piperazine-1-carboxamide]",19.6
15,"O=C1CN(C(=O)NC(c2ccc(OCC(F)(F)F)nc2)c2ccc(F)c(Cl)c2F)CCN1 (single isomer, unassigned) [Example 8A, N-((R or S)-(3-chloro-2,4-difluorophenyl)(6-(2,2,2-trifluoroethoxy)pyridin-3-yl)methyl)-3-oxopiperazine-1-carboxamide]",4.46
16,"O=C1CN(C(=O)NC(c2ccc(OCC(F)(F)F)nc2)c2ccc(F)c(Cl)c2F)CCN1 (single isomer, unassigned) [Example 8B, N-((S or R)-(3-chloro-2,4-difluorophenyl)(6-(2,2,2-trifluoroethoxy)pyridin-3-yl)methyl)-3-oxopiperazine-1-carboxamide]",136
17,"C[C@@H]1C(=O)NCCN1C(=O)NC(c1ccc(Cl)cc1)c1cccc(C(F)(F)F)n1 (single isomer, unassigned) [Example 9A, (2R)-N-((R or S)-(4-chlorophenyl)(6-(trifluoromethyl)pyridin-2-yl)methyl)-2-methyl-3-oxo-piperazine-1-carboxamide]",61.6
18,"C[C@@H]1C(=O)NCCN1C(=O)NC(c1ccc(Cl)cc1)c1cccc(C(F)(F)F)n1 (single isomer, unassigned) [Example 9B, (2R)-N-((S or R)-(4-chlorophenyl)(6-(trifluoromethyl)pyridin-2-yl)methyl)-2-methyl-3-oxopiperazine-1-carboxamide]",8.03
19,"C[C@@H]1C(=O)NCCN1C(=O)NC(c1cnc(OCC(F)(F)F)c(F)c1)c1ccc(F)c(Cl)c1F (single isomer, unassigned) [Example 10A, (2R)-N-((R or S)-(3-chloro-2,4-difluorophenyl)(5-fluoro-6-(2,2,2-trifluoroethoxy)pyridin-3-yl)methyl)-2-methyl-3-oxopiperazine-1-carboxamide]",1.18
20,"C[C@@H]1C(=O)NCCN1C(=O)NC(c1cnc(OCC(F)(F)F)c(F)c1)c1ccc(F)c(Cl)c1F (single isomer, unassigned) [Example 10B, (2R)-N-((S or R)-(3-chloro-2,4-difluorophenyl)(5-fluoro-6-(2,2,2-trifluoroethoxy)pyridin-3-yl)methyl)-2-methyl-3-oxopiperazine-1-carboxamide]",28
21,"C[C@@H]1C(=O)NCCN1C(=O)NC(c1ccc(F)c(Cl)c1)c1ccc2nc(C(F)(F)F)cn2c1 (single isomer, unassigned) [Example 11A, (2R)-N-((R or S)-(3-chloro-4-fluoro-phenyl)(2-(trifluoro-methyl)imidazo[1,2-a]pyridin-6-yl)-methyl)-2-methyl-3-oxopiperazine-1-carboxamide]",67.4
22,"C[C@@H]1C(=O)NCCN1C(=O)NC(c1ccc(F)c(Cl)c1)c1ccc2nc(C(F)(F)F)cn2c1 (single isomer, unassigned) [Example 11B]",196
23,"C[C@@H]1C(=O)NCCN1C(=O)NC(c1cnc(OCC(F)(F)F)nc1)c1ccc(F)c(Cl)c1F (single isomer, unassigned) [Example 12A]",9.24
24,"C[C@@H]1C(=O)NCCN1C(=O)NC(c1cnc(OCC(F)(F)F)nc1)c1ccc(F)c(Cl)c1F (single isomer, unassigned) [Example 12B]",501
25,"C[C@@H]1C(=O)NCCN1C(=O)NC(c1cnc(OCC(F)(F)F)s1)c1ccc(F)c(Cl)c1F (single isomer, unassigned) [Example 13A, (2R)-N-((R or S)-(3-chloro-2,4-difluoro-phenyl)(2-(2,2,2-tri-fluoroethoxy)thiazol-5-yl)methyl)-2-methyl-3-oxopiperazine-1-carboxamide]",2.13
